IC50 data for 87 compounds are collected here from PubChem BioAssay AID2305 (GlaxoSmithKline (GSK), 2010).

This assay concerns P. falciparum 3D7 growth, pLDH absorbance. The experiment in a line: blood-stage malaria parasite growth potency – strain 3D7, dose response (AID 2305).
For orientation: IC50 means the midpoint of a concentration-inhibition curve. Low readings indicate greater potency in that assay, high ones weaker potency in that assay. `CC(C)(C)c1ccc(C(=O)NC2CCC(CCN3CCc4ccc(S(C)(=O)=O)cc4CC3)CC2)cc1C(F)(F)F` (configuration not stated) yielded an IC50 of 1220 nM. The value for `Cn1cc(-c2ccccc2C(=O)O)c(=O)c2cc(Cl)ccc21` was 920 nM; that for `O=C(/C=C/c1ccc(Cl)c(Cl)c1)N1CCC(CN2CCC(c3c[nH]c4ccncc34)CC2)CC1` was 730 nM; that for `Cc1cc(C(=O)OCC(N)=O)c(C)n1-c1ccc(F)cc1` was 330 nM. `Cc1cccc2[nH]c(-c3ccc(-c4cccc(NC(=O)C(=O)c5cccn5C)c4)cc3)nc12`: the IC50 worked out at 980 nM. Compared with the last compound, the IC50 is about 3-fold higher. In the case of `Cc1cc(C(F)(F)F)n2nc(C3CCN(Cc4cc(C)c(O)c(C)c4)C3)cc2n1` (configuration not stated) it was 760 nM. In the case of `S=C(NCC1CCCCC1)NC1CCC(CN2CCC(c3c[nH]c4ccccc34)CC2)CC1` (configuration not stated) it was 1110 nM; in that of `O=c1cc(NCCCNCc2[nH]c3cc(Cl)cc(Cl)c3c2Cn2cccn2)[nH]c2ccccc12`, 970 nM; in that of `COc1ccc(Oc2ccc(-c3c(C)[nH]c(C)cc3=O)cc2)cc1`, 610 nM.

The compound `COc1ccccc1-c1ccc(C(=O)NCC2CCCN(Cc3cccc(C(F)(F)F)c3)C2)s1` (configuration not stated) returned an IC50 of 1540 nM. On to `CCC(C)CN1C(=O)C(c2ccccc2)(c2ccccc2)N=C1N` (configuration not stated), for which the IC50 came out at 710 nM. The value for `COc1ccc(C(=O)Nc2ccc3nc(N4CCCCC4)cc(C)c3c2)cc1OC` was 990 nM. In the case of `CC(=O)N(C)C1CCN(Cc2cccc(-c3ccc(-c4nc5ccc(C(F)(F)F)cc5[nH]4)cc3)c2)C1` (configuration not stated) it was 560 nM.

Compound `Cc1c(Oc2ccc(-n3ccnc3)cc2)ncnc1N1CCC2(CC1)CNCc1ccccc12` yielded an IC50 of 890 nM. In the case of `CC(=O)Nc1ccc(CN(Cc2ccc(OC(C)(C)C)cc2)Cc2ccc3c(c2)OCCO3)cc1` it was 930 nM; in that of `O=C(O)c1cccc2c(-c3ccncc3)cccc12`, 940 nM. With `COc1ccc(C2CCN(C#N)C2)cc1OC1CCCC1` (configuration not stated), the IC50 came to 230 nM. The value for `CCCCN(Cc1cc(Cl)c(OCC)c(OC)c1)c1ccc(C(O)(C(F)(F)F)C(F)(F)F)cc1` was 910 nM; that for `Nc1cccc(C=CC(=O)Nc2ccnc3ccccc23)c1` was 1060 nM; that for `CCN(CCO)CCc1cccc(Nc2nccc(-c3c(-c4ccc(NC(=O)C(C)(C)C)cc4)nn4ccccc34)n2)c1` was 710 nM. In the case of `CCCN1CCC(c2c[nH]c3ccc(NC(=O)Nc4cccc(Cl)c4Cl)cc23)CC1` it was 810 nM. The value for `Clc1ccc2c(N3CCN(CCN4CCN(c5ccnc6cc(Cl)ccc56)CC4)CC3)ccnc2c1` was 130 nM.

Consider `O=C(COc1cnc2ccccc2n1)Nc1ccccc1Sc1ccc(Cl)cc1`, for which the IC50 came to 730 nM. The value for `c1ccc(C2CCC(N3CCC(N4CCCC4)CC3)CC2)cc1` (configuration not stated) was 670 nM; that for `CC(C)NCc1ccc(-c2ccc(NC(=O)c3cccc(Cl)c3)cc2)cc1` was 960 nM. The value for `CNc1nc(NN=Cc2cc([N+](=O)[O-])c(Cl)cc2Cl)nc(Nc2cccc(C(F)(F)F)c2)n1` was 730 nM; that for `Cc1ccc(C(C)C)c(Oc2ccc3nc(N)nc(N)c3c2)c1` was 10 nM; that for `COC(=O)c1cccc(CNCc2cccc(-c3cccc(-c4nc5ccccc5[nH]4)c3)c2)c1` was 500 nM. In the case of `CS(=O)(=O)c1ccc2nc(-c3cc(-c4ccc(OCCN5CCOCC5)cc4)cnc3N)[nH]c2c1` it was 1060 nM; in that of `CC1CN(Cc2cccc(F)c2)CCN1c1ccc(NC(=O)c2ccc(F)cc2)cc1` (configuration not stated), 580 nM. In the case of `COc1cc2nc(NCCn3cccn3)nc(NCCc3ccccc3)c2cc1OC`, the IC50 amounted to 280 nM. This IC50 is about 2.1-fold lower than that of the compound before. The value for `Cc1cc(CNC(=O)[C@H](CC2CCCCC2)Nc2ccc(C#N)c3ccccc23)c(C(F)(F)F)o1` was 1180 nM; that for `CC(C)CNCc1cccc(-c2cccc(CN(CCN(C)C)C(=O)Nc3ccccc3)c2)c1` was 800 nM. Take `O=C(NC1CCC(CCN2Cc3ccc(Br)cc3C2)CC1)c1cccc(-c2cccnc2)c1` (configuration not stated): the IC50 worked out at 930 nM.

In the case of `COc1cc2nc(N3CCC(CNC(=O)c4ccc(-c5ccc(C#N)cc5C)cc4)CC3)nc(N)c2cc1OC`, the 50% inhibitory concentration (IC50) is 180 nM. In the case of `O=C(Nc1cccc([N+](=O)[O-])c1)Nc1cccc(C(F)(F)F)c1` it was 770 nM. The value for `O=C(Nc1ccc(-c2nc3ccccc3[nH]2)cc1)c1cncc(Br)c1` was 810 nM. Compound `CC(C)C[C@@H](/C=N/N1CC(=O)NC1=O)NC(=O)[C@H](CC(C)C)NC(=O)c1ccc(OCCN2CCOCC2)cc1` yielded an IC50 of 270 nM. The value for `COc1cc2nc(NCc3nc4ccccc4[nH]3)nc(N)c2cc1OC` was 890 nM. In the case of `N#CCCn1nc(-c2ccc(Cl)cc2)c2c(c1=O)CCCC2` it was 890 nM; in that of `NC(N)=NC(=O)Nc1cc(Cl)c(Cl)c(Br)c1`, 610 nM; in that of `CCCCCCN1CCC(NCc2cccc3ccccc23)CC1`, 810 nM. For the compound `CCOc1cc(C(=O)NC2CCN(Cc3ccccc3)CC2)ccc1-c1nc2cc(Cl)c(F)cc2[nH]1`, the IC50 amounted to 800 nM. The value for `COc1cc(N)c(Cl)cc1C(=O)NC1CCC(NCC2CCCCC2)CC1` (configuration not stated) was 430 nM.

`O=C(NC1CCN(c2ccnc3cc(Cl)ccc23)C1)c1ccc(F)cc1F` (configuration not stated) showed an IC50 of 370 nM. In the case of `CCOc1cccc(C(=O)Nc2ccc(-c3nc4ccccc4[nH]3)cc2)c1`, the IC50 came out at 1010 nM. Against the preceding compound, the IC50 is about 2.7-fold higher. In the case of `CCN(CC)S(=O)(=O)c1ccc(C=CC(=O)Nc2cc(Cl)ccc2N2CCOCC2)cc1` it was 920 nM. In the case of `Cc1cccc(CN2CCCN(Cc3cccc(C(=O)Nc4ccc(C(C)(C)C)cc4)c3)CC2)c1` it was 930 nM. The value for `Cc1cccc2[nH]c(-c3cccc(-c4cccc(NC(=O)NCc5cccc(F)c5)c4)c3)nc12` was 450 nM; that for `CC(C)C(C(=O)Nc1ccc(S(=O)(=O)N(C)C)cc1)c1ccc(Cl)cc1` (configuration not stated) was 940 nM. For `O=C(C=Cc1ccc(Cl)c(Cl)c1)NCCCCCN1CCC(CCCNC(=O)/C=C/c2ccccc2)CC1`, the IC50 was 590 nM. Compared with the last compound, the IC50 is about 1.6-fold lower. The compound `CCCC(=O)Nc1ccc(OCCCCN(Cc2ccccc2C(F)(F)F)c2ccc(C(F)(F)F)c(C#N)c2)cc1` displayed an IC50 of 970 nM. This IC50 is about 1.6-fold higher than that of the compound before. In the case of `O=[N+]([O-])c1ccc2nc(Nc3cccc(C(F)(F)F)c3)c(Nc3cccc(C(F)(F)F)c3)nc2c1` it was 480 nM; in that of `CCOc1ccc2ccccc2c1CNCCCCCCNCc1c(OCC)ccc2ccccc12`, 580 nM; in that of `O=C(Nc1cc(C(F)(F)F)cc(C(F)(F)F)c1)Nc1cc(C(F)(F)F)cc(C(F)(F)F)c1`, 730 nM. In the case of `COc1ccc(NC(=O)NC2CCN(CCCCCNC(=O)/C=C/c3ccc(Cl)c(Cl)c3)CC2)cc1` it was 1010 nM; in that of `COc1cc(OC)c(NC(=O)C2c3ccccc3C(=O)N(C)C2c2cccs2)cc1Cl` (configuration not stated), 760 nM. In turn, `COC(=O)c1ccc(CC(C)NCC(O)c2cccc(C(F)(F)F)c2)c(OC)c1` (configuration not stated) had an IC50 of 800 nM. Take `COc1ccccc1-c1cc(C(=O)N2CCN(S(=O)(=O)c3ccc(C)cc3)CC2)[nH]n1`: the half-maximal inhibitory concentration (IC50) is 1160 nM.

Consider `COc1ccc(NC(=O)/C=C/c2ccccc2Cl)cc1OCCN1CCC(N(C)C)CC1`, for which the 50% inhibitory concentration (IC50) is 970 nM. The IC50 values of the last two compounds are within 1.5-fold of each other.

Regarding `COc1cc2nc(NCCc3ccccc3)nc(NCc3cnn(C)c3C)c2cc1OC`, the 50% inhibitory concentration (IC50) is 710 nM. In the case of `COc1cc(NC(=O)c2sc(-c3ccc(Cl)cc3)cc2NC(=O)c2cccnc2)ccc1OCCN1CCCC1` it was 380 nM. The value for `Cc1cccc2[nH]c(-c3cccc(-c4ccc(CN5CCCC5CN)cc4)c3)nc12` (configuration not stated) was 760 nM. In turn, `CO[C@@H]1C[C@@H](C(=O)Nc2ccccc2)N(c2ccc(C#N)c3ccccc23)C1` returned an IC50 of 910 nM. The IC50 values of the last two compounds are within 1.5-fold of each other. The compound `COc1cccc(CN(C(=O)Nc2ccccc2F)[C@H]2C[C@H]3C(=O)Nc4cc(F)ccc4C(=O)N3C2)c1` displayed an IC50 of 840 nM. The value for `C[C@H](Cc1ccc(OCCCCCCOc2ccc(C[C@@H](C)NC[C@H](O)c3cccc(Cl)c3)cc2)cc1)NC[C@H](O)c1cccc(Cl)c1` was 300 nM; that for `O=C(NCCCCN1CC=C(c2ccc3c(c2OCc2ccccc2)CCCC3)CC1)c1ccc(-c2ccc(C(F)(F)F)cc2)cc1` was 300 nM. The value for `COc1ccc(C(=O)N2CCC(C(=O)NC(C)c3ccc(-n4ccnc4)cc3)CC2)c2ccccc12` (configuration not stated) was 1130 nM; that for `Cc1nnsc1C(=O)Nc1cccc(-c2ccc(-c3nc4ccccc4[nH]3)s2)c1` was 880 nM. `O=C(/C=C/c1ccc(Cl)c(Cl)c1)NCCCCCN1CCN(C(=O)Nc2ccc(C(F)(F)F)cc2)CC1` had a half-maximal inhibitory concentration (IC50) of 720 nM. In the case of `CC(C)C[C@H](NC(=O)c1ccc(F)cc1)C(=O)N[C@H](/C=N/NC(=O)c1ccccc1)CCc1ccccc1` it was 810 nM; in that of `CCn1c(-c2nonc2N)nc2cnc(Oc3cccc(NC(=O)c4ccc(OCCN(C(C)C)C(C)C)cc4)c3)cc21`, 780 nM. In the case of `Cc1cccc2[nH]c(-c3ccc(-c4ccc(CN5CCCC(N)C5)cc4)cc3)nc12` (configuration not stated) it was 350 nM. In the case of `COc1ccc2nccc([C@@H](O)CN3CCC(NCc4cc5cc([N+](=O)[O-])ccc5[nH]4)CC3)c2c1` it was 120 nM.

As to `CC(=O)Nc1ccc(C(=O)Nc2cccc(-c3cccc(-c4nc5ccccc5[nH]4)c3)c2)cn1`, the IC50 was found to be 200 nM. In the case of `COCCNCc1ccc(-c2ccccc2CNC2CCN(Cc3ccccc3)CC2)cc1` it was 980 nM; in that of `Cc1cc(NN=Cc2ccccc2[N+](=O)[O-])c2ccccc2n1`, 780 nM; in that of `CCN(Cc1ccccc1)CC(O)c1ccc(Cl)c(Cl)c1` (configuration not stated), 180 nM. The value for `Cc1ccc(NC(=O)NC2CCN(c3ccnc4ccccc34)CC2)cc1` was 790 nM; that for `COc1cc(Cc2cnc(N)nc2N)cc(OC)c1OCCCCC(=O)O` was 1140 nM. In the case of `COc1ccc(CNC(=O)NC2CCN(c3ccnc(Nc4cc(OC)c(OC)c(OC)c4)n3)C2)cc1` (configuration not stated) it was 950 nM.

For `COc1cccc(NC(=O)[C@H](C)n2c(=O)[nH]c3ccccc3c2=O)c1`, the IC50 came out at 760 nM. The value for `C=Cc1ccc(-c2c(C)[nH]c(C)c(Br)c2=O)cc1` was 560 nM; that for `O=C(NCCN1CCC(c2ccncc2)CC1)c1cccc(Nc2nccc(Nc3ccc(Oc4ccccc4)cc3)n2)c1` was 170 nM. The value for `Cc1ccc(OC2CCN(c3ccc(C(=O)NC4CC4)cn3)CC2)cc1` was 1300 nM; that for `NC1=NC(c2ccccc2)(c2ccccc2)C(=O)N1CCOc1ccccc1` was 840 nM. In the case of `COc1cccc(C23N=C(Nc4nc5ccccc5[nH]4)NC2(c2cccc(OC)c2)NC(Nc2nc4ccccc4[nH]2)=N3)c1` (configuration not stated) it was 160 nM.
